In patent publication USRE48461E1, “Modulation of androgen receptor expression” (Ionis Pharmaceuticals, Inc., priority 2012, dated 2021):
Oligonucleotides are written 5' to 3', each unit as a sugar letter and its base; * is a phosphorothioate linkage, no mark a phosphodiester; rarer units and linkages stand in square brackets, end groups in braces. Plain capitals give the bases only. e = 2'-O-(2-methoxyethyl) (MOE); k = constrained ethyl (cEt); [5mC] = 5-methylcytosine; d = 2'-deoxy (DNA)

Experiments:
AR mRNA [1] = assay: Dose-dependent antisense inhibition of human AR in HuVEC cells (electroporation, qRT-PCR RTS3559, IC50); type: cell-based; settings: HuVEC
Outline: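 HuVEC cells dosed with antisense oligonucleotides by electroporation and treated approximately 16 hours. AR mRNA quantified by real-time qPCR with primer probe set RTS3559 and normalised to total RNA by RIBOGREEN; IC50 from dose-response.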

AR mRNA [2] = assay: Antisense inhibition of human AR in HuVEC cells, single concentration (electroporation, qRT-PCR RTS3559); type: cell-based; settings: ~24 h
Outline: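 AR mRNA levels were measured with human primer-probe set RTS3559 and adjusted for total RNA (RIBOGREEN). Cells were HuVEC, with each antisense oligonucleotide delivered by electroporation at one concentration.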

[3] = Table 29, electroporation, approximately 16 hours
[4] = Table 30, electroporation, approximately 16 hours

Substance	percent inhibition of AR, 46.9 nM (AR mRNA [1]; [3]) [%]	percent inhibition of AR, 187.5 nM (AR mRNA [1]; [3]) [%]	percent inhibition of AR, 750.0 nM (AR mRNA [1]; [3]) [%]	percent inhibition of AR, 3000.0 nM (AR mRNA [1]; [3]) [%]	IC50 (AR mRNA [1]; [3]) [nM]	% inhibition (AR mRNA [2]; 500 nM ASO, Table 16) [%]	% inhibition (AR mRNA [2]; 500 nM ASO, Table 17) [%]	other results
569238 (antisense eG*kT*kT*kG*dA*dT*dT*dT*dA*dA*dT*kG*kG*kT*eT*eG) [compound 569238]	–	–	–	–	–	–	–	percent inhibition of AR (AR mRNA [1]; 31.25 nM, ~16 h, Table 14): 4%; percent inhibition of AR (AR mRNA [1]; 62.5 nM, ~16 h, Table 14): 32%; percent inhibition of AR (AR mRNA [1]; 125.0 nM, ~16 h, Table 14): 33%; percent inhibition of AR (AR mRNA [1]; 500.0 nM, ~16 h, Table 14): 71%; percent inhibition of AR (AR mRNA [1]; 1000.0 nM, ~16 h, Table 14): 88%; IC50 (AR mRNA [1]; ~16 h, Table 14): 202 nM; % inhibition (AR mRNA [2]; 1,000 nM ASO, Table 13): 51%
583542 (antisense kA*k[5mC]*kA*dG*d[5mC]*dA*d[5mC]*dT*dG*dG*dA*dG*d[5mC]*kG*kG*k[5mC]) [compound 583542]	9	28	47	66	900	45	–	–
583556 (antisense kA*kA*k[5mC]*dT*dT*d[5mC]*dA*d[5mC]*d[5mC]*dG*dA*dA*dG*kA*kG*kG) [compound 583556]	19	47	68	66	340	43	–	–
583559 (antisense kA*kG*kT*d[5mC]*dT*dT*dT*dA*dG*d[5mC]*dA*dG*d[5mC]*kT*kT*kT) [compound 583559]	30	49	63	80	220	52	–	–
583564 (antisense kG*k[5mC]*kT*dT*d[5mC]*d[5mC]*dT*d[5mC]*d[5mC]*dG*dA*dG*dT*k[5mC]*kT*kT) [compound 583564]	16	33	55	74	520	45	–	–
583566 (antisense k[5mC]*k[5mC]*kT*dT*dG*d[5mC]*dT*dT*d[5mC]*d[5mC]*dT*d[5mC]*d[5mC]*kG*kA*kG) [compound 583566]	0	28	50	74	730	47	–	–
583567 (antisense kG*k[5mC]*kA*d[5mC]*dT*dT*dT*d[5mC]*d[5mC]*dT*dT*dG*d[5mC]*kT*kT*k[5mC]) [compound 583567]	17	34	60	79	430	52	–	–
583571 (antisense kT*k[5mC]*kA*dG*dT*d[5mC]*d[5mC]*dT*dA*d[5mC]*d[5mC]*dA*dG*kG*k[5mC]*kA) [compound 583571]	18	36	53	59	800	43	–	–
583583 (antisense kG*kA*k[5mC]*dT*dG*dA*dG*dG*d[5mC]*dA*dG*d[5mC]*dT*kG*k[5mC]*kG) [compound 583583]	21	31	49	64	790	45	–	–
583584 (antisense k[5mC]*k[5mC]*kG*dA*d[5mC]*dT*dG*dA*dG*dG*d[5mC]*dA*dG*k[5mC]*kT*kG) [compound 583584]	24	44	52	73	410	44	–	–
583608 (antisense kG*k[5mC]*kT*dA*dG*d[5mC]*dT*d[5mC]*dG*d[5mC]*d[5mC]*d[5mC]*dG*k[5mC]*kT*k[5mC]) [compound 583608]	12	46	67	76	350	–	51	–
583609 (antisense k[5mC]*kA*kG*d[5mC]*dT*dA*dG*d[5mC]*dT*d[5mC]*dG*d[5mC]*d[5mC]*k[5mC]*kG*k[5mC]) [compound 583609]	16	48	63	73	360	–	51	–
583613 (antisense kG*k[5mC]*kA*dA*dT*dG*dT*dG*d[5mC]*dA*dG*d[5mC]*dT*kA*kG*k[5mC]) [compound 583613]	24	60	70	75	190	–	51	–
583635 (antisense k[5mC]*kT*kG*dG*d[5mC]*dT*d[5mC]*d[5mC]*dG*d[5mC]*dA*d[5mC]*dT*k[5mC]*kG*kG) [compound 583635]	35	56	69	78	130	–	50	–
583637 (antisense kA*kT*k[5mC]*dT*d[5mC]*dT*dG*dG*d[5mC]*dT*d[5mC]*d[5mC]*dG*k[5mC]*kA*k[5mC]) [compound 583637]	–	–	–	–	–	–	43	percent inhibition of AR, 46.9 nM (AR mRNA [1]; [4]): 22%; percent inhibition of AR, 187.5 nM (AR mRNA [1]; [4]): 32%; percent inhibition of AR, 750.0 nM (AR mRNA [1]; [4]): 59%; percent inhibition of AR, 3000.0 nM (AR mRNA [1]; [4]): 75%; IC50 (AR mRNA [1]; [4]): 450 nM
583638 (antisense kT*kG*kA*dT*d[5mC]*dT*d[5mC]*dT*dG*dG*d[5mC]*dT*d[5mC]*k[5mC]*kG*k[5mC]) [compound 583638]	33	64	79	85	110	–	51	–
